Converted amounts (≈) assume the structure as drawn. Like-named read-outs stand apart in the source and are kept apart here.
Tests used:
[1] = test system: S. aureus USA300 JE2 expressing GFP in H460 cells; assay: microbe, parasite or virus in culture; type: cell-based, Staphylococcus aureus; settings: for MIC50: Staphylococcus aureus, USA300, 24 h, read-out: H460 Assay MIC50 (MIC50 ex vivo)
Source text: Staphylococcus aureus, including MRSA, can invade host cells and replicate intracellularly, which complicates treatment with current therapies. To evaluate the intracellular antibacterial activities of the selected compounds, the fifteen compounds tested for cytotoxicity were further assessed using a cell infection model based on H460 human lung epithelial cells, which mimic MRSA-mediated pneumonia. H460 cells were infected with the USA300 JE2 expressing green fluorescent protein (GFP) and subsequently treated with the compounds in a dose–response manner, along with three reference antibiotics: vancomycin, linezolid, and erythromycin. After 24 h of incubation, bacterial loads were quantified by measuring GFP fluorescence in each well. MIC50 values determined in the H460 infection model (MIC50 ex vivo) were generally higher than those obtained from the in vitro tests, likely due to either limited compound penetration into host cells or reduced antibacterial effect of the compounds against intracellular bacteria (Figure 3, Table 2). […] These findings underscore the potential of compound 6y as a promising lead for further development as a novel antistaphylococcal agent.
To see the ex vivo antimicrobial activity of the compound, the human lung carcinoma cell line H460 (ATCC #HTB-177) was used. The H460 cells were cultured in RPMI 1640 medium with 10% fetal bovine serum (FBS) and in a 96-well microplate at 37 °C and 5% CO2. Cell lines were cultured for 2 days, until they reached full confluence in the well. S. aureus (USA300-containing and pCM29-encoding GFP) was cultured in CAMHB with 10 µg/mL of chloramphenicol, and bacterial cells were harvested. After washing the bacterial cells with phosphate-buffered saline (PBS) and suspending them in RPMI, infected H460 cells with S. aureus (1 × 10^7 CFU) and incubated them for 2.5 h. Samples were washed three times with PBS. Then, cells were treated with gentamicin (50 µg/mL of gentamicin in RPMI) and incubated for 1 h. Samples were washed with PBS, RPMI-containing diluted compounds were added, and then they were incubated at 37 °C in 5% CO2 for 24 h. To detect the Green fluorescent protein (GFP) signal, an Ensight multimode plate reader and Opera Phenix Plus (Revvity, Waltham, MA, USA) were used.
Ex vivo infection model images were generated using the Opera Phenix Plus high-content imaging system. Images were obtained by a confocal microscope with a 20× water objective lens. To detect the bacteria fluorescence signal (GFP), the Alexa 488 channel (488 nm laser/500–550 filter, Thermo Fisher Scientific, Waltham, MA, USA) was used, and the brightfield channel was used for H460 cell images.
Figure 3 Antibacterial activities of 2-(amino)quinazolin-4(3H)-one derivatives in the H460 infection model. H460 cells were infected with S. aureus USA300 JE strain expressing GFP, followed by treatment with serial dilutions of 2-(amino)quinazolin-4(3H)-one derivatives. After incubation at 37 °C for 24 h with 5% CO2, fluorescence signals of the bacteria were detected at 488 nm/510 nm using a multilabel plate reader.

HepG2 cells = assay: In vitro cytotoxicity, HepG2 viability (resazurin); type: cell-based, human; settings: Homo sapiens, HepG2, 24 h, HepG2 cells, 24 h, resazurin; read-out: HepG2 IC50
Experimental: The in vitro cytotoxicity of the compounds was evaluated by measuring the viability of HepG2 cells, a human liver cell line, following treatment in a dose–response manner, as previously described. […] The efficacy window was calculated as the ratio of IC50 in HepG2 cells to MIC50 against JE2.
To test cytotoxicity with compounds, the human liver cell line HepG2 (ATCC #HB-8065) was used for the assay. HepG2 was cultured in DMEM with 10% fetal bovine serum (FBS) in a 96-well microplate at 37 °C and 5% CO2. HepG2 cells were seeded at a final density of 5 × 10^4 cells/well, and DMEM-containing diluted compounds were added and incubated on the plates at 37 °C in 5% CO2 for 24 h. After that, resazurin (final concentration, 0.1 mg/mL) was added to each well and incubated on the plates at 37 °C in 5% CO2 for 2 h. To detect the fluorescence at 530 nm excitation and 590 nm emission, an Ensight multimode plate reader was used (Revvity, Waltham, MA, USA).

S. aureus ATCC25923 = assay: Broth microdilution dose-response, S. aureus ATCC25923; type: cell-based, Staphylococcus aureus; settings: OD600 after 18–24 h, read-out: ATCC25923 MIC50
Source text: (§1) The antistaphylococcal activities (MIC50) of the synthesized compounds were examined via a previously described broth microdilution method against two S. aureus strains: ATCC25923, a methicillin-sensitive reference strain, and JE2, a methicillin-resistant strain of the USA300 lineage (Figure 2, Table 1).
(§2) Staphylococcus aureus USA300, a methicillin-resistant strain, was obtained from the Nebraska Transposon Mutant Library. Staphylococcus aureus ATCC25923, a pan-drug-susceptible strain, was purchased from the American Type Culture Collection (ATCC) (Manassas, VA, USA). S. aureus strains were grown in Cation-Adjusted Mueller–Hinton broth (CAMHB) (Difco) at 37 °C. Bacterial strain stocks were stored in vials with 25% glycerol at −80 °C. For each experiment, overnight cultures were prepared by inoculating a frozen bacterial strain stock in 10 mL of CAMHB medium and incubating at 37 °C in a shaking incubator (180 rpm). For the preliminary screen and dose–response experiments, 100 µL of overnight culture was inoculated into 10 mL of fresh CAMHB and incubated for 3 h at 37 °C and 180 rpm.
(§3) Antibiotic susceptibility assay was tested according to modified Clinical and Laboratory Standards Institute (CLSI) laboratory guidelines for broth microdilution assays. S. aureus was cultured in CAMHB, and bacterial cells were prepared with an OD600 of 0.005. DRC plates were prepared by adding 40 µL of bacterial suspension to each well, where 10 µL of each compound had been dispensed for […] of two-fold serial dilutions starting at […]. After incubation of the plates at 37 °C for 18–24 h with 5% CO2, the growth of S. aureus was detected by measuring the OD600nm using an Ensight (Revvity) spectrometer (Revvity, Waltham, MA, USA).
(§4) Figure 2 In vitro antibacterial activities of 2-(amino)quinazolin-4(3H)-one derivatives. S. aureus ATCC25923 (blue) and USA300 JE (orange) strains were incubated with serial dilutions of 2-(amino)quinazolin-4(3H)-one derivatives (0.19–100 µM) for 18–24 h. The dose–responses were observed by measuring OD600nm. The plots were drawn from each group of strains with nonlinear curve fits.

S. aureus USA300 JE2 = assay: Broth microdilution dose-response, S. aureus USA300 JE2 (MRSA); type: cell-based, Staphylococcus aureus; settings: for MIC50: OD600 after 18–24 h, read-out: USA300 MIC50; for fold better antibacterial activity against JE2 compared to compound 1: JE2, versus compound 1
Source text: as §1, §2, §3, §4

[2] = Staphylococcus aureus, ATCC25923, methicillin-sensitive strain
[3] = Staphylococcus aureus, USA300, USA300 JE2, methicillin-resistant
[4] = USA300 JE2, methicillin-resistant

O=c1[nH]c(Nc2ccc(Cl)cc2)nc2cc(Cl)ccc12 [6v, 7-Chloro-2-((4-chlorophenyl)amino)quinazolin-4(3H)-one]
MIC50 [1]: 23.9 µM (≈ 7.32 µg/mL)
IC50 (HepG2 cells): 25.5 µM
MIC50 (S. aureus ATCC25923; [2]): 2.1 to 4.5 µM (≈ 0.643 to 1.38 µg/mL)
MIC50 (S. aureus ATCC25923; methicillin-sensitive strain): 2.7 µM (≈ 0.827 µg/mL)
MIC50 (S. aureus USA300 JE2; [3]): 0.9 to 3 µM (≈ 0.276 to 0.918 µg/mL)
MIC50 (S. aureus USA300 JE2; [4]): 1.7 µM (≈ 0.52 µg/mL)

O=c1[nH]c(Nc2cc(Cl)cc(Cl)c2)nc2cc(Cl)c(Cl)cc12 [6h, 6,7-Dichloro-2-((3,5-dichlorophenyl)amino)quinazolin-4(3H)-one]
MIC50 [1]: 4.1 µM (≈ 1.54 µg/mL)
IC50 (HepG2 cells): 10.2 µM
MIC50 (S. aureus ATCC25923; [2]): 3 to 6 µM (≈ 1.13 to 2.25 µg/mL)
MIC50 (S. aureus ATCC25923; methicillin-sensitive strain): 3.7 µM (≈ 1.39 µg/mL)
fold better antibacterial activity against JE2 compared to compound 1 (S. aureus USA300 JE2): at least 6.5 fold
MIC50 (S. aureus USA300 JE2; [3]): 0.3 to 1.9 µM (≈ 0.113 to 0.713 µg/mL)
MIC50 (S. aureus USA300 JE2; [4]): 0.3 µM (≈ 0.113 µg/mL)

O=c1[nH]c(Nc2cc(F)cc(F)c2)nc2cc(Cl)ccc12 [6q, 7-Chloro-2-((3,5-difluorophenyl)amino)quinazolin-4(3H)-one]
MIC50 [1]: 8.7 µM (≈ 2.68 µg/mL)
IC50 (HepG2 cells): 35.5 µM
MIC50 (S. aureus ATCC25923; [2]): 2.1 to 4.5 µM (≈ 0.646 to 1.38 µg/mL)
MIC50 (S. aureus ATCC25923; methicillin-sensitive strain): 2.1 µM (≈ 0.646 µg/mL)
MIC50 (S. aureus USA300 JE2; [3]): 0.9 to 3 µM (≈ 0.277 to 0.923 µg/mL)
MIC50 (S. aureus USA300 JE2; [4]): 0.9 µM (≈ 0.277 µg/mL)

O=c1[nH]c(Nc2cccc(F)c2)nc2cc(Cl)ccc12 [6n, 7-Chloro-2-((3-fluorophenyl)amino)quinazolin-4(3H)-one]
MIC50 [1]: 43.8 µM (≈ 12.7 µg/mL)
IC50 (HepG2 cells): 19.7 µM

O=c1[nH]c(Nc2cccc(C(F)(F)F)c2)nc2cc(Cl)ccc12 [6r, 7-Chloro-2-((3-(trifluoromethyl)phenyl)amino)quinazolin-4(3H)-one]
MIC50 [1]: 35.8 µM (≈ 12.2 µg/mL)
IC50 (HepG2 cells): 15.1 µM
MIC50 (S. aureus ATCC25923; [2]): 2.1 to 4.5 µM (≈ 0.713 to 1.53 µg/mL)
MIC50 (S. aureus ATCC25923; methicillin-sensitive strain): 3.1 µM (≈ 1.05 µg/mL)

CC(=O)NC[C@H]1CN(c2ccc(N3CCOCC3)c(F)c2)C(=O)O1 [linezolid, reference compound]
H460 Assay MIC50 (MIC50 ex vivo) ([1]; H460 cells infected with USA300 JE2-GFP, 24 h, GFP fluorescence): 1.2 µM

CC[C@H]1OC(=O)[C@H](C)[C@@H](O[C@H]2C[C@@](C)(OC)[C@@H](O)[C@H](C)O2)[C@H](C)[C@@H](O[C@@H]2O[C@H](C)C[C@H](N(C)C)[C@H]2O)[C@](C)(O)C[C@@H](C)C(=O)[C@H](C)[C@@H](O)[C@]1(C)O [Erythromycin, reference compound]
MIC50 [1]: 0.1 µM (≈ 0.0734 µg/mL)
IC50 (HepG2 cells): > 100 µM
MIC50 (S. aureus ATCC25923; [2]): 0.7 µM (≈ 0.514 µg/mL)
MIC50 (S. aureus USA300 JE2; [3]): 0.49 µM (≈ 0.36 µg/mL)

O=c1[nH]c(Nc2cc(Cl)cc(Cl)c2)nc2c(Br)cc(Br)cc12 [6f, 6,8-Dibromo-2-((3,5-dichlorophenyl)amino)quinazolin-4(3H)-one]
MIC50 [1]: 8.7 µM (≈ 4.04 µg/mL)
IC50 (HepG2 cells): 9.6 µM
MIC50 (S. aureus ATCC25923; [2]): 3 to 6 µM (≈ 1.39 to 2.78 µg/mL)
MIC50 (S. aureus ATCC25923; methicillin-sensitive strain): 6.0 µM (≈ 2.78 µg/mL)
fold better antibacterial activity against JE2 compared to compound 1 (S. aureus USA300 JE2): at least 6.5 fold
